We go through 13 compounds from patent publication US9249140B2, “Bicyclic heteroaromatic compounds” (MERCK PATENT GMBH, priority 2011, dated 2016).

Type in all cases: biochemical
The target of one assay is T1, FAK (Homo sapiens, UniProt Q05397).
T1 construct: 2 nM FAK, 400 nM biotinylated substrate
Put plainly: FAK kinase assay (autophosphorylation), 384-well flashplate. To be noted: enzymatic; 1 μM ATP; read-out: IC50 (enzymatic), FAK inhibition. As to the method: The focal adhesion kinase (FAK) assay is carried out either as a 384-well flashplate assay (for example for Topcount measurements) or as a 384-well image flashplate assay (for LEADseeker measurements). […] The reaction is stopped using 25 μl of 200 mM EDTA. After 30 min at 30° C., the liquid is removed, and each well is washed three times with 100 μl of 0.9% sodium chloride solution. Non-specific reaction is determined in the presence of 1 μM EMD 1076893/0(PF-562271). The radioactivity is measured using Topcount (in the case of the use of flashplates) or using LEADseeker (in the case of the use of image flashplates).

A further assay has as its target T2, IKKε (Homo sapiens, UniProt Q14164).
T2 construct: 1 nM IKKε, 800 nM biotinylated IκBα(19-42) peptide
T2 sequence (Q14164 1-716): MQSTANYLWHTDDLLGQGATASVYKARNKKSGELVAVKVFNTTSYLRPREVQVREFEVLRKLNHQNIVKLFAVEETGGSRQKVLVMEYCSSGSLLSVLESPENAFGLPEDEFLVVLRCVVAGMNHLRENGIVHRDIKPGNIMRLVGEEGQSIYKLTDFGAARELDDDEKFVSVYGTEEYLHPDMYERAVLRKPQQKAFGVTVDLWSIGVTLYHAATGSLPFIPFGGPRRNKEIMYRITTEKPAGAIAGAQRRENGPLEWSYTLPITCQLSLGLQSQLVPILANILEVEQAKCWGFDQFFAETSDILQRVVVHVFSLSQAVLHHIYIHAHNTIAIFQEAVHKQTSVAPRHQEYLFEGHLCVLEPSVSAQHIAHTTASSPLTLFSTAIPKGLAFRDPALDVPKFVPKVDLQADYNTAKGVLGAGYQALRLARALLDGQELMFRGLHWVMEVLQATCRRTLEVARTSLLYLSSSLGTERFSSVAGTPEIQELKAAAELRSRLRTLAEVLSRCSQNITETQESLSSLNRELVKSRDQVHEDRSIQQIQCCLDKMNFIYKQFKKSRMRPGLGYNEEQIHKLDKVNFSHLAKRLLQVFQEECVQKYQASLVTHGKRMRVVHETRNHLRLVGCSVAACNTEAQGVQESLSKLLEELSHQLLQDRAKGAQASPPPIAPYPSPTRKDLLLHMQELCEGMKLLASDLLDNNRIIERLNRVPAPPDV
Put plainly: IKKε kinase test (IKKepsilon), 384-well flashplate. The settings on record: enzymatic; 10 μM ATP; read-out: IKKe IC50 (enzymatic). As to the method: The kinase assay is performed as 384-well flashplate assay. 1 nM IKKε, 800 nM biotinylated IκBα(19-42) peptide (biotin-C6-C6-[…] (SEQ ID NO: 2)) and 10 μM ATP (with 0.3 μCi of 33P-ATP/well) are incubated in a total volume of 50 μl (10 mM MOPS, 10 mM magnesium acetate, 0.1 mM EGTA, 1 mM dithiothreitol, 0.02% of Brij, 0.1% of BSA, 0.1% of BioStab, pH 7.5) with or without test substance at 30° C. for 120 min. The reaction is stopped using 25 μl of 200 mM EDTA solution, filtered off with suction after 30 min at room temperature, and the wells are 25 washed 3 times with 100 μl of 0.9% NaCl solution. The non-specific proportion of the kinase reaction (blank) is determined using 3 μM EMD 1126352 (BX-795). Radioactivity is measured in the Topcount. IC50 values are calculated using RS1.

The target in a further assay is T3, PDK1 (Homo sapiens, UniProt O15530).
T3 construct: the PDK1 sample His6-PDK1(Δ1-50)(3.4 nM)
T3 sequence (O15530 51-556): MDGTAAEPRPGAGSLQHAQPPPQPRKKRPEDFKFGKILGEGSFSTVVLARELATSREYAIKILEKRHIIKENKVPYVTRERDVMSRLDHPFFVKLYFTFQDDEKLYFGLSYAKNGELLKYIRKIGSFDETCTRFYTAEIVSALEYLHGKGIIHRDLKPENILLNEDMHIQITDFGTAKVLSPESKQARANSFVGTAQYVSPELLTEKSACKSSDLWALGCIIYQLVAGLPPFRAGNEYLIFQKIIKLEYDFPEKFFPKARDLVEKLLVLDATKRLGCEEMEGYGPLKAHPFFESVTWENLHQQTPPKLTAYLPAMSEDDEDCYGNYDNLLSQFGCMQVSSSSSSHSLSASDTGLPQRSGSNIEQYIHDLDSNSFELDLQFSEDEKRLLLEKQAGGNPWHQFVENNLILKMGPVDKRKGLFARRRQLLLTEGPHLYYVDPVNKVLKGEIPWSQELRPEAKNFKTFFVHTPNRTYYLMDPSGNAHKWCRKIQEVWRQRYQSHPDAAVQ
Put plainly: Test for the inhibition of PDK1, 384-well flashplate. The settings on record: enzymatic; 4 μM ATP. As to the method:
The experimental batches are carried out in a flashplate system with 384 wells/microtitration plate.
In each case, the PDK1 sample His6-PDK1(Δ1-50)(3.4 nM) (“His6” disclosed as SEQ ID NO: 4), the PDK1 substrate biotin-bA-bA-[…] (SEQ ID NO: 1) (400 nM), 4 μM ATP (with 0.2 μCi of 33P-ATP/well) and the test substance in 50 μl of conventional experimental solution per well are incubated at 30° C. for 60 min. The test substances are employed in corresponding concentrations (if desired in a dilution series). The control is carried out without test substance. The reaction is stopped using standard methods and washed. The activity of the kinase is measured via the incorporated radioactivity in top count. In order to determine the non-specific kinase reaction (blank value), the experimental batches are carried out in the presence of 100 nM staurosporine.
The radioactivity (decompositions per minute) of the blank value (no use of test substance in the presence of staurosporine) is subtracted from all other radioactivity values. The controls (kinase activity without test substance) are set equal to 100 percent and all other radioactivity values (after subtracting the blank value) are expressed set in relation thereto (for example in % of the control).

In assay [1] the target is T4, TANK binding kinase (TBK1) (Homo sapiens, UniProt Q9UHD2).
T4 sequence (Q9UHD2 1-729): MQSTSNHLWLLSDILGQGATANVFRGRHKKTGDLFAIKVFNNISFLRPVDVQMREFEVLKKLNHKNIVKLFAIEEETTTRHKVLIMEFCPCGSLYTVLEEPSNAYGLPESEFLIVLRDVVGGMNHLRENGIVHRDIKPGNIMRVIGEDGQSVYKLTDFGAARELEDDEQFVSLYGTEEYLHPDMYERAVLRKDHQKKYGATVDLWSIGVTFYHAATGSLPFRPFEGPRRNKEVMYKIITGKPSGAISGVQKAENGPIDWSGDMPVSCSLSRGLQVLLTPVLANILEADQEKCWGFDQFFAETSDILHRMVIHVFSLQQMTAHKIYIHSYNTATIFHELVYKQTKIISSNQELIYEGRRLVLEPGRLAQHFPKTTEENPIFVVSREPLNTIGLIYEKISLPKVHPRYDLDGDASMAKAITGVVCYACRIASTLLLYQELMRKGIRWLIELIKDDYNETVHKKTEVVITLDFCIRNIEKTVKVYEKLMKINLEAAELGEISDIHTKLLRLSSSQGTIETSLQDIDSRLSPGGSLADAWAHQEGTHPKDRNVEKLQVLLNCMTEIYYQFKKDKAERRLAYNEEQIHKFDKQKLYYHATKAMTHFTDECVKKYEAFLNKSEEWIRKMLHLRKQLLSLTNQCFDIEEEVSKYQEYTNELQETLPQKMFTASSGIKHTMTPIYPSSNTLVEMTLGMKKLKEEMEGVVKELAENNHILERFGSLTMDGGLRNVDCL
Put plainly: TBK1 kinase test, 384-well flashplate. To be noted: enzymatic; 10 μM ATP. As to the method:
The kinase assay is performed as 384-well flashplate assay. 0.6 nM TANK binding kinase (TBK1), 800 nM biotinylated MELK-derived peptide (biotin-Ah-Ah-[…] (SEQ ID NO: 3)) and 10 μM ATP (with 0.25 μCi of 33P-ATP/well) are incubated in a total volume of 50 μl (10 mM MOPS, 10 mM magnesium acetate, 0.1 mM EGTA, 1 mM DTT, 0.02% of Brij35, 0.1% of BSA, pH 7.5) with or without test substance at 30° C. for 120 min. The reaction is stopped using 25 μl of 200 mM EDTA solution, filtered off with suction after 30 min at room temperature, and the wells are washed 3 times with 100 μl of 0.9% NaCl solution. The non-specific proportion of the kinase reaction (blank) is determined using 100 nM staurosporine. Radioactivity is measured in the Topcount. IC50 values are calculated using RS1.

T1 sequence (Q05397 whole entry): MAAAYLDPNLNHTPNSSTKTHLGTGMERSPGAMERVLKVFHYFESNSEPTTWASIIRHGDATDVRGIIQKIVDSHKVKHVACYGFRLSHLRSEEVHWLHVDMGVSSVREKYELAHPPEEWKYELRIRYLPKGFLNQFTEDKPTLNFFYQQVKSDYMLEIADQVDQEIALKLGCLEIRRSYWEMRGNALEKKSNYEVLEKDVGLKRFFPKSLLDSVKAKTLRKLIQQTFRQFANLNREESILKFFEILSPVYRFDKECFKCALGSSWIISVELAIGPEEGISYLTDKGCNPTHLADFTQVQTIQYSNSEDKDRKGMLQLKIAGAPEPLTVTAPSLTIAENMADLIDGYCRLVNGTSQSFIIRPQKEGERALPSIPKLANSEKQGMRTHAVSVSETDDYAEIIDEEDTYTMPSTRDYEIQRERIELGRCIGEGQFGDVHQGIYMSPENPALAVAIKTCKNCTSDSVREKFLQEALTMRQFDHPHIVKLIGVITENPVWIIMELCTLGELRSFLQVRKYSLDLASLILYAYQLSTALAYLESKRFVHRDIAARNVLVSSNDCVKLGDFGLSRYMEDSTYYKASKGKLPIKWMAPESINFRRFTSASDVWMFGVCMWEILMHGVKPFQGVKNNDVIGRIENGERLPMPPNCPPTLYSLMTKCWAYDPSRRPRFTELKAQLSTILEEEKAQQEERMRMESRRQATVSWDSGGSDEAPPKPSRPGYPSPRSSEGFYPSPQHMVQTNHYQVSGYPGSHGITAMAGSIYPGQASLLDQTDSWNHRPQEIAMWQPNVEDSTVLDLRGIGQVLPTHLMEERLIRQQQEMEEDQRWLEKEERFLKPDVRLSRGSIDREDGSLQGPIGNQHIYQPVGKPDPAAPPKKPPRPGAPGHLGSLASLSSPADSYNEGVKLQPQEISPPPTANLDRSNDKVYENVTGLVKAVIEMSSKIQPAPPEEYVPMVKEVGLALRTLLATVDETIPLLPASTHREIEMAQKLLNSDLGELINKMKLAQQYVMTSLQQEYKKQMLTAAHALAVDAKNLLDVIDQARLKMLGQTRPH

For orientation: IC50 means the concentration at which inhibition is half-maximal. Turning to `CN(c1ncccc1-c1cc2ccnc(Nc3ccc4c(c3)CC(=O)N4)c2[nH]1)S(C)(=O)=O` [A1, N-Methyl-N-{3-[7-(2-oxo-2,3-dihydro-1H-indol-5-ylamino)-1H-pyrrolo-[2,3-c]pyridin-2-yl]-pyridin-2-yl}methanesulfonamide], the IC50 at FAK lay within 3 to 50 µM. The same measure, in the same setting: then `CN(c1ncccc1-c1cc2ccnc(Nc3ccc(N4CCOCC4)cc3)c2[nH]1)S(C)(=O)=O` [A2, N-Methyl-N-{3-[7-(4-morpholin-4-ylphenyl-amino)-1H-pyrrolo[2,3-c]pyridin-2-yl]pyridin-2-yl}methanesulfonamide], with 3 to 50 µM; and `CN(c1ncccc1-c1cc2ccnc(Nc3ccc4c(c3)CCC(=O)N4)c2[nH]1)S(C)(=O)=O` [A3, N-Methyl-N-{3-[7-(2-oxo-1,2,3,4-tetrahydroquinolin-6-ylamino)-1H-pyrrolo[2,3-c]pyridin-2-yl]pyridin-2-yl}methanesulfonamide], with 3 to 50 µM; and `COc1cc(N2CCOCC2)ccc1Nc1ncnc2nc(-c3cccnc3N(C)S(C)(=O)=O)[nH]c12` [A4, N-{3-[6-(2-Methoxy-4-morpholin-4-ylphenyl-amino)-7H-purin-8-yl]pyridin-2-yl}-N-methyl-methanesulfonamide], with 3 to 50 µM.

For `CN(c1ncccc1-c1nc2ncnc(Nc3ccc(N4CCOCC4)cc3)c2[nH]1)S(C)(=O)=O` [A5, N-Methyl-N-{3-[6-(4-morpholin-4-ylphenyl-amino)-7H-purin-8-yl]pyridin-2-yl}methanesulfonamide], the 50% inhibitory concentration (IC50) on FAK is 3 to 50 µM. The same measure, in the same setting: then `CN(c1ncccc1-c1nc2ncnc(Nc3cnn(C)c3)c2[nH]1)S(C)(=O)=O` [A6, N-Methyl-N-{3-[6-(1-methyl-1H-pyrazol-4-yl-amino)-7H-purin-8-yl]pyridin-2-yl}methanesulfonamide], with 3 to 50 µM; and `CN(c1ncccc1-c1nc2ccnc(Nc3ccc4c(c3)CCC(=O)N4)c2[nH]1)S(C)(=O)=O` [A7, N-Methyl-N-{3-[4-(2-oxo-1,2,3,4-tetra-hydroquinolin-6-ylamino)-3H-imidazo[4,5-c]-pyridin-2-yl]pyridin-2-yl}methanesulfonamide], with 3 to 50 µM. As for `Cn1cc(-c2c(C(F)(F)F)cnc3[nH]c(-c4cccc(C(=O)N5CCOCC5)c4)cc23)cn1` [A95, {3-[4-(1-Methyl-1H-pyrazol-4-yl)-5-trifluoro-methyl-1H-pyrrolo[2,3-b]pyridin-2-yl]phenyl}-morpholin-4-ylmethanone], the 50% inhibitory concentration (IC50) at IKKε fell in the range of 3 to 50 µM; against PDK1, 0.3 to 3 µM; in assay [1], 0.3 to 3 µM. Turning to `Cn1cc(-c2c(C(F)(F)F)cnc3[nH]c(-c4ccc(C(=O)N5CCOCC5)cc4)cc23)cn1` [A96, {4-[4-(1-Methyl-1H-pyrazol-4-yl)-5-trifluoro-methyl-1H-pyrrolo[2,3-b]pyridin-2-yl]phenyl}-morpholin-4-ylmethanone], the IC50 is 0.3 to 3 µM at IKKε, less than 0.3 µM against PDK1 and less than 0.3 µM in assay [1]. Regarding `Nc1ccc(-c2c(C(F)(F)F)cnc3[nH]c(-c4ccc(N5CCOCC5)cc4)cc23)cc1` [A100, 4-[2-(4-Morpholin-4-ylphenyl)-5-trifluoromethyl-1H-pyrrolo[2,3-b]pyridin-4-yl]phenylamine], in assay [1], the concentration for half-maximal inhibition (IC50) was 0.3 to 3 µM. As to `FC(F)(F)c1cnc2[nH]c(-c3ccc(N4CCOCC4)cc3)cc2c1-c1cn[nH]c1` [A102, 2-(4-Morpholin-4-ylphenyl)-4-(1H-pyrazol-4-yl)-5-trifluoromethyl-1H-pyrrolo[2,3-b]pyridine], the IC50 on PDK1 was in the range of 3 to 50 µM. On the same count and under the same terms, then `Cn1cc(-c2c(C(F)(F)F)cnc3[nH]c(-c4cccc(N5CCOCC5)c4)cc23)cn1` [A104, 4-(1-Methyl-1H-pyrazol-4-yl)-2-(3-morpholin-4-ylphenyl)-5-trifluoromethyl-1H-pyrrolo[2,3-b]-pyridine], with 0.3 to 3 µM. For the compound `Cn1cc(-c2c(C(F)(F)F)cnc3[nH]c(-c4ccc(F)cc4)cc23)cn1` [A105, 2-(4-Fluorophenyl)-4-(1-methyl-1H-pyrazol-4-yl)-5-trifluoromethyl-1H-pyrrolo[2,3-b]pyridine], the half-maximal inhibitory concentration (IC50) against PDK1 fell in the range of 0.3 to 3 µM.
